pIC50: −log10 of the molar value.
Experiments:
hPPARα, hPPARγ, hPPARδ = assay: Gal4-hPPAR α/γ/δ transactivation: isoform selectivity and dose dependence; format: cell-based, human; details: 10 μM
Experimental: (§1) The PPAR activation was evaluated in vitro on a monkey kidney fibroblast line (COS-7) by measuring the transcriptional activity of chimeras constituted of the DNA binding domain of the Gal4 transcription factor of yeast and of the binding domain to the ligand of the different PPARs. The compounds were tested at doses between 0.01 and 100 μM on Gal4-PPARα, γ, δ chimeras. The induction factor (ratio between the luminescence induced by the compound and the luminescence induced by the control) was measured for each condition: the higher this factor, the more the compound has PPAR-activating properties.
(§2) The Gal4(RE)_TkpGL3, pGal4-hPPARα, pGal4-hPPARγ, pGal4-hPPARδ and pGal4-φ plasmids have been described in the literature (Raspe, Madsen et al. 1999). The pGal4-hPPARα, pGal4-hPPARγ and pGal4-hPPARδ constructs were obtained by cloning in the pGal4-φ vector of fragments of DNA amplified by PCR corresponding to the DEF domains of the human PPARα, PPARγ PPARδ nuclear receptors.
(§3) COS-7 cells were plated in 96 wells plates (5×10^4 cells/well) and transfected, in the presence of 10% foetal calf serum and 150 ng DNA per well, with a pGal4-PPAR/Gal4(RE)_TkpGL3 ratio of 1/10. The cells were then incubated for 24 hours with the compounds to be tested, without serum. At the end of the experiment, the cells were lysed and the luciferase activities were determined by means of Steady Glow Luciferase (Promega) according to the supplier's recommendations.
The inventive compounds were tested at doses between 0.01 and 100 μM on the 3 PPAR isoforms. The results obtained are detailed in FIGURES (1a), (1b) and (1c): evolution of the transactivation levels according to the dose for the three PPAR sub-types (α, γ, and δ respectively).

hPPARα = target: T1, hPPARα (Homo sapiens, UniProt Q07869); assay: Gal4-hPPARα chimera transactivation in COS-7 cells (luciferase); format: cell-based; details: induction factor standardised to an internal reference, read-out: % hGal4-PPAR transactivation (10 μM) alpha
T1 construct: fragments of DNA amplified by PCR corresponding to the DEF domains of the human PPARα, PPARγ PPARδ nuclear receptors; expressed in transfected cells; host or cells: COS-7 (monkey kidney fibroblast line)
T1 sequence (Q07869 239-466 limits assumed): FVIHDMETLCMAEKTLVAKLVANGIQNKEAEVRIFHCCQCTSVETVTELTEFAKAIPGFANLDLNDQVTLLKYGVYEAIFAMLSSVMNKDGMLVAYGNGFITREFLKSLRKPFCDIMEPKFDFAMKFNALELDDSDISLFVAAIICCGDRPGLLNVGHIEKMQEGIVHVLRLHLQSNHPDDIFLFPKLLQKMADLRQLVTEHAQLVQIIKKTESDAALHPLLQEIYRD
Experimental: as §1
(§4) The COS-7 cells from ATCC were cultivated in a DMEM medium supplemented with 10% (vol/vol) of foetal calf serum, 100 U/ml penicillin (Gibco, Paisley, UK) and 2 mM L-Glutamine (Gibco, Paisley, UK). The cells were incubated at 37° C. in a humid atmosphere containing 5% CO2.
as §2, §3
(§5) The inventive compounds were tested at 10 μM on the 3 PPAR isoforms. The results obtained are detailed in table (1). The transactivation measured is expressed as a response ratio versus an internal reference for each of the isoforms.
(§6) The compounds were tested at 10 μM on the Gal4-PPARα, γ, δ chimeras. The induction factor, i.e. the ratio between the luminescence induced by the compound and the luminescence induced by the control, was measured for each condition. It was then standardised in comparison to an internal reference and the results were then expressed in percentages : the higher the activation percentage, the more the compound has PPAR-activating properties.

[1] = target: T2, ATP-dependent potassium channels (K+ATP) (Rattus norvegicus, UniProt Q09429); assay: [3H]glibenclamide binding to ATP-dependent potassium channels of rat cerebral cortex; details: for inhibition at 0.3 µM: 1 h, 300 nM, specific displacement of [3H]glibenclamide 0.1 nM, read-out: KATP binding (300 nM)
T2 construct: the potassium channels derive from a rat's cerebral cortex; tissue CEREP; host or cells: rat cerebral cortex
Experimental: The results shown reflect the specific affinity of the inventive compounds on the ATP-dependent (K^+ATP) potassium channels. The specific binding measured corresponds to the difference between the total binding and the non-specific binding determined in the presence of an excess of non-marked reference ligand (glibenclamide 1 μM). The inventive compounds were tested at doses between 3 and 300 nM: the higher the percentage measured, the stronger the affinity of the compound for the ATP-dependent potassium channels.
The binding test was carried out at CEREP (Celle L'Evescault, France (86)) according to a protocol inspired by Angel et al. (Angel and Bidet 1991): the potassium channels derive from a rat's cerebral cortex and the reference compound is [^3H]glibenclamide at 0.1 nM. The protocol consists of incubation at 22° C. for one hour.

hPPARγ = target: T3, hPPARγ (Homo sapiens, UniProt P37231); assay: Gal4-hPPARγ chimera transactivation in COS-7 cells (luciferase); format: cell-based; details: induction factor standardised to an internal reference, read-out: % hGal4-PPAR transactivation (10 μM) gamma
T3 construct: fragments of DNA amplified by PCR corresponding to the DEF domains of the human PPARα, PPARγ PPARδ nuclear receptors; expressed in transfected cells; host or cells: COS-7 (monkey kidney fibroblast line)
T3 sequence (P37231 238-503 limits assumed): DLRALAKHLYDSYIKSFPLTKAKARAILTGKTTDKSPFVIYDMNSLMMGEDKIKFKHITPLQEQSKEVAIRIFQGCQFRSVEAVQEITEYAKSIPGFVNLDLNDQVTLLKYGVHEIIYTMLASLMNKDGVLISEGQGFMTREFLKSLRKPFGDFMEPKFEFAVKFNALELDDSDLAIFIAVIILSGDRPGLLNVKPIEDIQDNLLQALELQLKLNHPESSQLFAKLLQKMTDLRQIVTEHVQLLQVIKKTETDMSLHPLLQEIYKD
Experimental: as §1, §4, §2, §3, §5, §6

hPPARδ = target: T4, hPPARδ (Homo sapiens, UniProt Q03181); assay: Gal4-hPPARδ chimera transactivation in COS-7 cells (luciferase); format: cell-based; details: induction factor standardised to an internal reference, read-out: % hGal4-PPAR transactivation (10 μM) delta
T4 construct: fragments of DNA amplified by PCR corresponding to the DEF domains of the human PPARα, PPARγ PPARδ nuclear receptors; expressed in transfected cells; host or cells: COS-7 (monkey kidney fibroblast line)
T4 sequence (Q03181 211-439 limits assumed): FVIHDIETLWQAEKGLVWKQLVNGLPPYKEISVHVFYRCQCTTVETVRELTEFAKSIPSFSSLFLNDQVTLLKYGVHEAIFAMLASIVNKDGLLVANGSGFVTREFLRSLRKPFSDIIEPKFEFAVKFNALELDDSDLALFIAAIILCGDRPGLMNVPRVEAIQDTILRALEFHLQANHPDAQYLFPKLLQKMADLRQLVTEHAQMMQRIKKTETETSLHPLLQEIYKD
Experimental: as §1, §4, §2, §3, §5, §6

T2 sequence (Q09429 whole entry): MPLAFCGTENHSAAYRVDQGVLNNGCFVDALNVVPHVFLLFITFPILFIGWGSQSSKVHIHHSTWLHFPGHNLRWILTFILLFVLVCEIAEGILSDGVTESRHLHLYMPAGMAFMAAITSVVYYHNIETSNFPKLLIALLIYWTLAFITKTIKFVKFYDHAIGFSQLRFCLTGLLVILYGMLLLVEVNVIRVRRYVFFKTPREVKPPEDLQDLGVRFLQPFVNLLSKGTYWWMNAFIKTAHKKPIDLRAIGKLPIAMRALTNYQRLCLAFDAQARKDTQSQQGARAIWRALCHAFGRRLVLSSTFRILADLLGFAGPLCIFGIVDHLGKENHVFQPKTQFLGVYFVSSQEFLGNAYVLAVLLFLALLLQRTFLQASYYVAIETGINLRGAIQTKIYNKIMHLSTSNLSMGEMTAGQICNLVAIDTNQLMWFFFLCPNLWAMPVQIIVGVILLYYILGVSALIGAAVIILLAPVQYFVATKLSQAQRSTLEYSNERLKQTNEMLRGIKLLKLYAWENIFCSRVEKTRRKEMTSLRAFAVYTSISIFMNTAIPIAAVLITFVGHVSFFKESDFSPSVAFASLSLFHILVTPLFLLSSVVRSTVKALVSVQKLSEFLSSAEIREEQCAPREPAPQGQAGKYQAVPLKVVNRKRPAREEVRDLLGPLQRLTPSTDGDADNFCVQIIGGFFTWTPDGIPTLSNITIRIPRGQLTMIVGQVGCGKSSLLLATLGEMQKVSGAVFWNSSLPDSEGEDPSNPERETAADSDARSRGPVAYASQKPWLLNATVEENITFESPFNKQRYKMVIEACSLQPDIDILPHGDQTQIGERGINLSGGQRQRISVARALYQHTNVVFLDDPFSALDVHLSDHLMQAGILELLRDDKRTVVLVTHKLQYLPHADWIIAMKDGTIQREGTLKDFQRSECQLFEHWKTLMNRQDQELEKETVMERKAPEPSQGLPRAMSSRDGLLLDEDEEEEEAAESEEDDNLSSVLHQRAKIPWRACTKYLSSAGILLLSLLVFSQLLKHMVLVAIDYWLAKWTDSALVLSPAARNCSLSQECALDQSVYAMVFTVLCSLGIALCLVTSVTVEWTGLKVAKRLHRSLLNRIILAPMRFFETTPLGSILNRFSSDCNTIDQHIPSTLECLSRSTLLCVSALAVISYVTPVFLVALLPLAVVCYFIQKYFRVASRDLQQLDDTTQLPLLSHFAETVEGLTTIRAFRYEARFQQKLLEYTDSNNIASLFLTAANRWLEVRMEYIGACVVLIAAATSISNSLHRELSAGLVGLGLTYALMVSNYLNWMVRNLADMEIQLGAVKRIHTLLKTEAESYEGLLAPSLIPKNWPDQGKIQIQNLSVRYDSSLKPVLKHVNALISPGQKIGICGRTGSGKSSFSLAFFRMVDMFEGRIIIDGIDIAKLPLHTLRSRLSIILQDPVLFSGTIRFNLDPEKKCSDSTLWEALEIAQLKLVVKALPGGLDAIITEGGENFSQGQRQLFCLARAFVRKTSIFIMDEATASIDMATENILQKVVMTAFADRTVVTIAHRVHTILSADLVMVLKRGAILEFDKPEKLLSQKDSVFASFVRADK
T2 sequence (P70673 whole entry partner): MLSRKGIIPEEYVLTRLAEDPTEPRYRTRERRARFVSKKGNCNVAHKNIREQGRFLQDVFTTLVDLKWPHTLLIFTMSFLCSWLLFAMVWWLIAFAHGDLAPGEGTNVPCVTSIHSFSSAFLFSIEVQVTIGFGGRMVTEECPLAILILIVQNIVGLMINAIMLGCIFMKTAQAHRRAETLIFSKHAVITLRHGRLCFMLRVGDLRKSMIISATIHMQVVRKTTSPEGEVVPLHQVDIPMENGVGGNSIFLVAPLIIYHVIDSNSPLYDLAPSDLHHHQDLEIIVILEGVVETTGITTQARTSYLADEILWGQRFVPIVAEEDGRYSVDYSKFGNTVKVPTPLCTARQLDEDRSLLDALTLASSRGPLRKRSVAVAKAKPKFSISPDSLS

Row | Structure (SMILES) | activation at 10 µM (hPPARα) [%] | inhibition at 0.3 µM [1] [%] | activation at 10 µM (hPPARγ) [%] | activation at 10 µM (hPPARδ) [%] | pIC50 ([1]; FIG. 2) | selectivity with respect to PPAR isoforms (hPPARα, hPPARγ, hPPARδ)
1 | CCCCC(NC(=O)Cc1ccc(OC(C)(C)C(=O)O)cc1)c1ccccc1Sc1ccccc1 (centres unmarked) [Compound 36, 2-[4-[1-(1-(2-(phenylthio)phenyl)pentyl)aminocarbonylmethyl]phenoxy]-2-methylpropanoic acid] | 54 | 45 | 73 | < 10 |  | activates hPPARα and hPPARγ, but not hPPARδ
2 | CC(C)(Oc1ccc(CC(=O)NC(CC2CCCCC2)c2ccccc2N2CCCCC2)cc1)C(=O)O (centres unmarked) [Compound 19, 2-[4-[1-(2-cyclohexyl-1-(2-(1-piperidinyl)phenyl)ethyl)aminocarbonylmethyl]phenoxy]-2-methylpropanoic acid] | < 10 |  | 95 | < 10 |  | activates neither hPPARα nor hPPARδ
3 | CCCCC(NC(=O)Cc1ccc(OC(C)(C)C(=O)O)cc1)c1ccc(-n2cccc2)cc1N1CCCCC1 (centres unmarked) [Compound 49, 2-[4-[1-(1-(2-(1-piperidinyl)-4-(1H-pyrrolyl)phenyl)pentyl)aminocarbonylmethyl]phenoxy]-2-methylpropanoic acid] | < 10 |  | 87 | 57 |  | activates hPPARγ and hPPARδ, but not hPPARα
4 | CCCCC(NC(=O)Cc1ccc(OC(C)(C)C(=O)O)cc1)c1cccc(F)c1N1CCCCC1 (centres unmarked) [Compound 45, 2-[4-[1-(1-(3-fluoro-2-(1-piperidinyl)phenyl)pentyl)aminocarbonylmethyl]phenoxy]-2-methylpropanoic acid] | 31 | 66 | 62 | < 10 |  | 
5 | CC(C)CC(NC(=O)Cc1ccc(OC(C)(C)C(=O)O)cc1)c1ccc(-c2ccccc2)cc1N1CCCCC1 (centres unmarked) [Compound 39, 2-[4-[1-(3-methyl-1-(2-(1-piperidinyl)-4-(phenyl)phenyl)butyl)aminocarbonylmethyl]phenoxy]-2-methylpropanoic acid] | 16 |  | 29 | 24 |  | ligand of hPPARα, hPPARγ and hPPARδ
6 | CC(C)CC(NC(=O)C(C)c1ccc(OC(C)(C)C(=O)O)cc1)c1ccccc1N1CCCCC1 (centres unmarked) [Compound 34, 2-[4-[1-methyl-1-[1-(3-methyl-1-(2-(1-piperidinyl)phenyl)butyl)aminocarbonyl]methyl]phenoxy]-2-methylpropanoic acid] | < 10 | 81 | 30 | < 10 |  | 
7 | CCCCC(NC(=O)Cc1ccc(OC(C)(C)C(=O)O)cc1)c1ccccc1N1CCCCC1 (centres unmarked) [Compound 10, 2-[4-[1-(1-(2-(1-piperidinyl)phenyl)pentyl)aminocarbonylmethyl]phenoxy]-2-methylpropanoic acid] | 11 |  | 49 | < 10 | 7.20 | 

More lines, main results first:

Row | activation at 10 µM (hPPARα) [%] | inhibition at 0.3 µM [1] [%] | activation at 10 µM (hPPARγ) [%] | activation at 10 µM (hPPARδ) [%] | pIC50 ([1]; FIG. 2) | Structure (SMILES) | selectivity with respect to PPAR isoforms (hPPARα, hPPARγ, hPPARδ)
8 | 46 | 49 | < 10 | < 10 |  | CCCCC(NC(=O)Cc1ccc(OC(C)(C)C(=O)NS(=O)(=O)C(F)(F)F)cc1)c1ccccc1N1CCCCC1 (centres unmarked) [Compound 60, N-[trifluoromethylsulfonyl]-2-[4-[1-(1-(2-(1-piperidinyl)phenyl)pentyl)aminocarbonylmethyl]phenoxy]-2-methylpropanamide] | hPPARα selective
9 | < 10 | 57 | 18 | < 10 |  | CC(C)CC(NC(=O)Cc1ccc(OC(C)(C)C(=O)NS(=O)(=O)c2ccccc2)cc1)c1ccccc1N1CCCCC1 (centres unmarked) [Compound 64, N-[phenylsulfonyl]-2-[4-[1-(3-methyl-1-(2-(1-piperidinyl)phenyl)butyl)aminocarbonylmethyl]phenoxy]-2-methylpropanamide] | 
10 | 22 | 73 | < 10 | < 10 |  | CC(C)CC(NC(=O)Cc1ccc(OC(C)(C)C(=O)NS(=O)(=O)C(F)(F)F)cc1)c1ccccc1N1CCCCC1 (centres unmarked) [Compound 59, N-[trifluoromethylsulfonyl]-2-[4-[1-(3-methyl-1-(2-(1-piperidinyl)phenyl)butyl)aminocarbonylmethyl]phenoxy]-2-methylpropanamide] | 
11 | < 10 | 90 | 50 | < 10 |  | CCCC(NC(=O)Cc1ccc(OC(C)(C)C(=O)O)cc1)c1ccccc1N1CCCCC1 (centres unmarked) [Compound 65, 2-[4-[1-(1-(2-(1-piperidinyl)phenyl)butyl)aminocarbonylmethyl]phenoxy]-2-methylpropanoic acid] | 
12 | < 10 | 25 | 40 | < 10 |  | CCCCC(NC(=O)Cc1ccccc1OCCCC(C)(C)C(=O)O)c1ccccc1N1CCCCC1 (centres unmarked) [Compound 53, 5-[2-[1-(1-(2-(1-piperidinyl)phenyl)pentyl)aminocarbonylmethyl]phenoxy]-2,2-dimethylpentanoic acid] | 
